Experimental data as given in ChEMBL document CHEMBL5244204, “Drug discovery approaches targeting 5-lipoxygenase-activating protein (FLAP) for inhibition of cellular leukotriene biosynthesis” (Eur J Med Chem, 2018).
Each block holds one molecule with its values, some of them ahead of it.

Assays:
Rattus norvegicus [1] = experiment: In vivo inhibition of Leukotriene biosynthesis in pleural inflammation rat model assessed as reduction in LTB4 level at po dosed for 1 hr followed by calcium ionophore A-23187 administration and measured after 30 mins by enzyme immunoassay; type: functional; conditions: time 1.5 hrs
[2] = Inhibition of Leukotriene biosynthesis in calcium ionophore A-23187 stimulated human PMNL cells assessed as inhibition of LTB4 formation by enzyme immunoassay; type: functional, cell-based
[3] = biological target: T1, Arachidonate 5-lipoxygenase-activating protein (Homo sapiens, UniProt P20292); experiment: Inhibition of FLAP in human whole blood assessed as reduction in all-trans isomers of LTB4 and 5-HETE formation preincubated with enzyme for 15 mins followed by fMLP addition and measured after 15 mins by HPLC analysis; type: tissue-based
T1 sequence (P20292 whole entry): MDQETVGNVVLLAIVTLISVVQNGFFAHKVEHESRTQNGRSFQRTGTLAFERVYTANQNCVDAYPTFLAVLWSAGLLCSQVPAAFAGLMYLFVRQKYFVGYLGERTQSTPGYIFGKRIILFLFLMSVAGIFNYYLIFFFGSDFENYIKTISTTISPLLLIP

Prostaglandin E synthase = biological target: T2, Prostaglandin E synthase (Homo sapiens, UniProt O14684); experiment: Inhibition of mPGES-1 activity in IL-1beta human A549 microsome using PGH2 as substrate preincubated for 15 mins followed by substrate addition for 1 min by RP-HPLC analysis; type: microsomes
T2 sequence (O14684 whole entry): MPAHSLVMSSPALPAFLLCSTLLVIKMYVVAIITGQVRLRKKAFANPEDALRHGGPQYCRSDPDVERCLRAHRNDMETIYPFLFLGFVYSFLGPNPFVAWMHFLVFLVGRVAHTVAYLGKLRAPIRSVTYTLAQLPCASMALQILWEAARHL

[4] = biological target: T1, Arachidonate 5-lipoxygenase-activating protein; experiment: Inhibition of FLAP in human neutrophil assessed as reduction in all-trans isomers of LTB4 and 5-HETE formation using arachidonic acid as substrate preincubated with enzyme for 15 mins followed by substrate addition and A23187 measured after 10 mins by ELISA assay; type: cell-based
[5] = biological target: T1, Arachidonate 5-lipoxygenase-activating protein; experiment: Inhibition of FLAP in human monocyte assessed as reduction in all-trans isomers of LTB4 and 5-HETE formation preincubated with enzyme for 15 mins followed by A23187 addition and measured after 10 mins by ELISA assay; type: cell-based
Homo sapiens = species: Homo sapiens; experiment: Inhibition of Leukotriene biosynthesis in human whole blood assessed as inhibition of LTB4 formation; type: functional
Rattus norvegicus [6] = experiment: In vivo inhibition of Leukotriene biosynthesis in anaphylaxis rat model assessed as reduction in LTB4 level at po dosed; type: functional
[7] = Inhibition of Leukotriene biosynthesis in human PMNL cells preincubated for 2 mins followed by calcium ionophore A23187 addition and measured after 5 mins by radioimmunoassay; type: functional, cell-based
[8] = biological target: T3, Polyunsaturated fatty acid 5-lipoxygenase (Rattus norvegicus, UniProt P12527); experiment: Inhibition of 5-LOX in […] rat PMNL cells assessed as reduction in 5-LO product level incubated for 3 mins by scintillation counting method; type: cell-based
T3 sequence (P12527 whole entry): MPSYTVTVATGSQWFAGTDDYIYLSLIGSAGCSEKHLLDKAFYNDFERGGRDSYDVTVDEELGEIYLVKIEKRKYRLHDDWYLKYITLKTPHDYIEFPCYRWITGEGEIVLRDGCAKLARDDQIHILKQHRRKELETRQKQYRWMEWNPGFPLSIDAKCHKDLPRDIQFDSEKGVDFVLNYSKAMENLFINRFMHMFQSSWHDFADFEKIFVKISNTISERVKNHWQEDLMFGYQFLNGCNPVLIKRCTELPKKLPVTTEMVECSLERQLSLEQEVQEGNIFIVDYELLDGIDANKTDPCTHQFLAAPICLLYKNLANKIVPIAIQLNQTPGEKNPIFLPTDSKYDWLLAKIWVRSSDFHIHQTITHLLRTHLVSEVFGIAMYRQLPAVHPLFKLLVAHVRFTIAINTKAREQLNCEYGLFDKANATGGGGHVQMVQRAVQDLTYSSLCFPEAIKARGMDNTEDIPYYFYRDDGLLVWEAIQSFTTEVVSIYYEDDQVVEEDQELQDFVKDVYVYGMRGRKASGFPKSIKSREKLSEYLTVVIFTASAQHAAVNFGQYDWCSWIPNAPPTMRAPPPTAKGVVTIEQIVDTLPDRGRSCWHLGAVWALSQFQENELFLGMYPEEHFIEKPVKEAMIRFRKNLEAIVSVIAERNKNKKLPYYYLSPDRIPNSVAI

[9] = biological target: T1, Arachidonate 5-lipoxygenase-activating protein; experiment: Inhibition of FLAP in human whole blood assessed as reduction in LTB4 level preincubated for 15 mins followed by calcium ionophore A23187 addition and measured after 30 min; type: tissue-based
[10] = biological target: T1, Arachidonate 5-lipoxygenase-activating protein; experiment: Inhibition of FLAP in human whole blood assessed as reduction of LTB4 formation preincubated with enzyme for 15 mins followed by calcimycin addition and measured after 30 mins by HTRF assay; type: tissue-based
[11] = biological target: T1, Arachidonate 5-lipoxygenase-activating protein; experiment: Inhibition of FLAP in human PMNL cells assessed as reduction in all-trans isomers of LTB4 and 5-HETE formation preincubated with enzyme for 15 mins followed by Ca2+ ionophore-A23187 and measured after 10 mins by HPLC analysis; type: cell-based
[12] = biological target: T1, Arachidonate 5-lipoxygenase-activating protein; experiment: Inhibition of FLAP in human monocyte assessed as reduction in all-trans isomers of LTB4 and 5-HETE formation preincubated with enzyme for 15 mins followed by Ca2+ ionophore-A23187 and measured after 10 mins by HPLC analysis; type: cell-based
Rattus norvegicus [13] = experiment: Anti-inflammatory activity against anaphylaxis in peritoneal cavity of rat model assessed as reduction in LTB4 level at po dosed by ELISA; type: functional
[14] = Inhibition of Leukotriene biosynthesis in calcium ionophore A23187 stimulated human PMNL cells assessed as inhibition of LTB4 formation by cellular assay; type: functional, cell-based
[15] = biological target: T1, Arachidonate 5-lipoxygenase-activating protein; experiment: Displacement of [125I]-L-691831 from recombinant human FLAP expressed in Sf9 insect cells incubated for 2 hr by scintillation proximity assay
[16] = biological target: T4, Polyunsaturated fatty acid 5-lipoxygenase (Homo sapiens, UniProt P09917); experiment: Inhibition of 5-LOX in human whole blood assessed as inhibition of LTB4 formation preincubated for 10 mins followed by calcium ionophore A23187 addition and measured after 30 min by RIA/RP--HPLC analysis; type: tissue-based
T4 sequence (P09917 whole entry): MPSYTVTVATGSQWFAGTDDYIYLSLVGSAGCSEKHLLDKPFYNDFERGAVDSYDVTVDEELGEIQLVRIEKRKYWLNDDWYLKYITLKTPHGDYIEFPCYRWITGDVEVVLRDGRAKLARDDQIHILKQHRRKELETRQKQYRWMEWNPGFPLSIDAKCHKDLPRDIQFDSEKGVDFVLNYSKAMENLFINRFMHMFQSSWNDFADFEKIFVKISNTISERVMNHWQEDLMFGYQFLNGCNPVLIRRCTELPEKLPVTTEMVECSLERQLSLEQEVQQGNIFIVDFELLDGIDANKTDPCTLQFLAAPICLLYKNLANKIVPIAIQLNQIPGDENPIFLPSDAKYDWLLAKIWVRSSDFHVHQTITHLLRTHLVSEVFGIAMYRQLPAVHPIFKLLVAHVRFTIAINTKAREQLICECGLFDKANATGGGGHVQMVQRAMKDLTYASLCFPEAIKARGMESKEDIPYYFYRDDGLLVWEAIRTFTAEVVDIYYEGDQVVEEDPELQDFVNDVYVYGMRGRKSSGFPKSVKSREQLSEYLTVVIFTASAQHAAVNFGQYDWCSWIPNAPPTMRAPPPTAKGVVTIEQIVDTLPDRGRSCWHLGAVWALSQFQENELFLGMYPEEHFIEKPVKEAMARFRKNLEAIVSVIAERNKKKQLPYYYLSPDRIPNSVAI

[17] = biological target: T4, Polyunsaturated fatty acid 5-lipoxygenase; experiment: Inhibition of 5-LOX in human PMNL cells assessed as inhibition of LTB4 formation preincubated for 5 mins followed by calcium ionophore A23187 addition and measured after 6 min by HPLC analysis; type: cell-based
[18] = biological target: T1, Arachidonate 5-lipoxygenase-activating protein; experiment: Inhibition of FLAP in human PMNL cells assessed as inhibition of 5-LO product LT formation preincubated for 15 mins followed by calcium ionophore A23187 addition and measured after 10 min by HPLC analysis; type: cell-based
[19] = biological target: T4, Polyunsaturated fatty acid 5-lipoxygenase; experiment: Inhibition of recombinant human 5-LO expressed in Escherichia coli JM109 using arachidonic acid as substrate incubated for 10 mins by HPLC analysis

IC50 [2]: 23 nM
SMILES: CC(CCC(=O)O)(c1ccc(OCc2ccc3ccccc3n2)cc1)c1ccc(OCc2ccc3ccccc3n2)cc1
ED50 (Rattus norvegicus [1]): 1.5 mg/kg

IC50 [3]: 4800 nM
IC50 (Prostaglandin E synthase): 200 nM
IC50 [4]: 150 nM
IC50 [5]: 40 nM
SMILES: CC(C)Cc1ccc(C(C)c2nc3ccccc3n2Cc2ccccc2Cl)cc1 (stereo not drawn)

IC50 (Homo sapiens): 870 nM
SMILES: C/C(=N\O[C@H](c1ccc(OCc2ccc3ccccc3n2)cc1)C1CCCCC1)C(=O)[O-].[Na+]
ED50 (Rattus norvegicus [6]): 0.4 mg/kg

IC50 [7]: 30 nM
SMILES: c1ccc(COCC(OCc2ccccc2)c2ccc(OCc3ccc4ccccc4n3)cc2)cc1 (stereo not drawn)

IC50 [8]: 20 nM
SMILES: O=C(O)CSC(CCCc1ccc(Cl)cc1)c1ccc(OCc2ccc3ccccc3n2)cc1 (stereo not drawn)

IC50 [9]: 66 nM
SMILES: Nc1cnc(-c2ccc(C3CCC3)c(Oc3ncccn3)c2F)cn1

IC50 [10]: 130 nM
SMILES: CNC(=O)c1ccc(F)cc1-c1nc2cc(-c3cnc(N)nc3)ccc2n1C(C)(C)C

IC50 [10]: 94 nM
SMILES: CNC(=O)c1ccc(C#N)cc1-c1nc2cc(-c3cnc(N)nc3)ccc2n1C(C)(C)C

IC50 [10]: 2700 nM
SMILES: CC(C)(C)n1c(-c2ccccc2C(=O)Nc2ccccn2)nc2cc(-c3cnc(N)nc3)ccc21

IC50 [9]: 390 nM
SMILES: Nc1cnc(-c2ccc(-c3ccccc3S(N)(=O)=O)cc2F)cn1

IC50 [11]: 7 nM
IC50 [12]: 7 nM
SMILES: O=C(O)c1noc(-c2ccc(OCc3ccc4ccccc4n3)cc2)c1-c1ccc(Cl)cc1

IC50 [14]: 12 nM
SMILES: CC(C)(/C=N/OCC(=O)O)Cc1c(SC(C)(C)C)c2cc(OCc3ccc4ccccc4n3)ccc2n1Cc1ccc(Cl)cc1
ED50 (Rattus norvegicus [13]): 0.24 mg/kg

IC50 [7]: 4 nM
SMILES: O=C(O)CSC(CCCc1ccccc1)(Cc1ccccc1)c1ccc(OCc2ccc3ccccc3n2)cc1 (stereo not drawn)

IC50 [15]: 0.7 nM
SMILES: Cc1ccn(-c2ccc(Cl)cc2-c2nc3cc(-c4cnc(N)nc4)ccc3n2C(C)(C)C)n1

IC50 [16]: 1100 nM
IC50 [17]: 42 nM
SMILES: O=C(O)[C@@H](c1ccc(OCc2ccc3ccccc3n2)cc1)C1CCCCCC1

IC50 [9]: 600 nM
SMILES: CC(C)(C)c1ccc(-c2cnc(N)cn2)c(F)c1

IC50 [14]: 21 nM
SMILES: CC(C)(CO/N=C/C(=O)O)Cc1c(SC(C)(C)C)c2cc(OCc3ccc4ccccc4n3)ccc2n1Cc1ccc(Cl)cc1
ED50 (Rattus norvegicus [13]): 0.9 mg/kg

IC50 [8]: 70 nM
SMILES: O=C(O)CSC(CCCc1ccccc1)c1ccc(OCc2ccc3ccccc3n2)cc1 (stereo not drawn) [AZD-4769]

IC50 [18]: 1700 nM
IC50 [19]: > 10000 nM
SMILES: CC1(C)Cc2c(-c3ccccc3)c(-c3ccc(Cl)cc3)c(CC(=O)O)n2C1 [LICOFELONE]

IC50 (Homo sapiens): 6000 nM
IC50 [16]: 11600 nM
IC50 [17]: 220 nM
SMILES: O=C(O)[C@@H](c1ccc(OCc2ccc3ccccc3n2)cc1)C1CCCC1 [VELIFLAPON]
ED50 (Rattus norvegicus [6]): 4 mg/kg
